Source: patent US9101136B2, “Synergistic herbicide/fungicide composition containing certain pyridine carboxylic acids and certain fungicides” (Dow AgroSciences LLC, priority 2010, dated 2015)
Structures can show the parent of a compound that is named as a salt.

What was measured:
Assay type in all cases: in vivo
[1] = tested on: wild pansy (Viola tricolor L; VIOTR); assay: Postemergence herbicidal activity of mixtures on wild pansy
Method: (§1) Seeds of the desired test plant species were planted in Sun Gro MetroMix 306 planting mixture, which typically has a pH of 6.0 to 6.8 and an organic matter content of about 30 percent, in plastic pots with a surface area of 103.2 square centimeters (cm^2). When required to ensure good germination and healthy plants, a fungicide treatment and/or other chemical or physical treatment was applied. The plants were grown for 7-36 days (d) in a greenhouse with an approximate 14-hour (h) photoperiod which was maintained at about 18° C. during the day and 17° C. during the night. Nutrients and water were added on a regular basis and supplemental lighting was provided with overhead metal halide 1000-Watt lamps as necessary. The plants were employed for testing when they reached the second or third true leaf stage.
(§2) Treatments consisted of a cereal fungicide compound (as listed in Tables 1 through 34) and the cereal herbicide, 4-amino-3-chloro-6-(4-chloro-2-fluoro-3-methoxyphenyl)pyridine-2-carboxylic acid, alone and in combination. Weighed amounts of acid, esters (methyl) or salts (triethylammonium, TEA) of 4-amino-3-chloro-6-(4-chloro-2-fluoro-3-methoxyphenyl)pyridine-2-carboxylic acid (Compound I) were placed in 25 milliliter (mL) glass vials and dissolved in a volume of 97:3 volume-to-volume (v/v) acetone/dimethyl sulfoxide (DMSO) to obtain 4.5 milligrams active ingredient per milliliter (mg ai/mL) concentrated solutions. […] The concentrated solutions of Compound I were diluted to 1.5 mg ai/mL with the addition of 2 volumes of an aqueous mixture containing acetone, water, isopropyl alcohol, DMSO, Agri-dex crop oil concentrate, and Triton® X-77 surfactant in a 64.7:26.0:6.7:2.0:0.7:0.01 v/v ratio. A dilution solution was prepared by mixing 1 volume of 97:3 v/v acetone/DMSO and 2 volumes of an aqueous mixture containing acetone, water, isopropyl alcohol, DMSO, Agri-dex crop oil concentrate, and Triton® X-77 surfactant in a 64.7:26.0:6.7:2.0:0.7:0.01 v/v ratio. Compound requirements are based upon a 12 mL application volume at a rate of 187 liters per hectare (L/ha). The concentrated solutions of the cereal fungicides were prepared following the same procedure. Weighed amounts of fungicide were placed in 25 mL glass vials and dissolved in a volume of 97:3 v/v acetone/DMSO to obtain concentrated fungicide solutions. The concentrated solutions of the safener were prepared following the same procedure. Weighed amounts of safener were placed in 25 mL glass vials and dissolved in a volume of 97:3 v/v acetone/DMSO to obtain concentrated safener solutions.
(§3) Spray solutions of the cereal herbicide and the fungicidal compound mixtures were prepared by adding the concentrated solutions to the appropriate amount of dilution solution to form 12 mL spray solution with active ingredients in combinations. Spray solutions of the cereal herbicide, herbicide safener and the fungicidal compound mixtures were prepared by adding the concentrated solutions to the appropriate amount of dilution solution to form 12 mL spray solution with active ingredients in combinations.
(§4) Formulated compounds were applied to the plant material with an overhead Mandel track sprayer equipped with 8002E nozzles calibrated to deliver 187 L/ha over an application area of 0.503 square meters (m^2) at a spray height of 18 inches […] above average plant canopy. Control plants were sprayed in the same manner with the solvent blank.
(§5) The treated plants and control plants were placed in a greenhouse as described above and watered by sub-irrigation to prevent wash-off of the test compounds. After 20-22 d, the condition of the test plants as compared with that of the control plants was determined visually and scored on a scale of 0 to 100 percent where 0 corresponds to no injury and 100 corresponds to complete kill. […]

[2] = tested on: bird's-eye speedwell (Veronica persica L; VERPE); assay: Postemergence herbicidal activity of mixtures on bird's-eye speedwell; settings: for VERPE Ob (observed control): alone
Method: as §1, §2, §3, §4, §5

[3] = tested on: Russian thistle (Salsola iberica L; SASKR); assay: Postemergence herbicidal activity of mixtures on Russian thistle; settings: for SASKR Ob (observed control): alone
Method: as §1, §2, §3, §4, §5

[4] = tested on: kochia (Kochia scoparia L; KCHSC); assay: Postemergence herbicidal activity of mixtures on kochia; parameters: pest or weed control: dose or concentration left out as unconfirmed; KCHSC Ob: unit: %; settings: for KCHSC Ob (observed control): alone
Method: as §1, §2, §3, §4, §5

[5] = tested on: scented mayweed (Matricaria chamomila L; MATCH); assay: Postemergence herbicidal activity of mixtures on scented mayweed; parameters: pest or weed control: dose or concentration left out as unconfirmed; settings: for MATCH Ob (observed control): alone
Method: as §1, §2, §3, §4, §5

## Fc1ccc([C@]2(Cn3cncn3)O[C@H]2c2ccccc2Cl)cc1 (racemic) [Epoxiconazole, rel-1-[[(2R,3S)-3-(2-chlorophenyl)-2-(4-fluorophenyl)oxiranyl]methyl]-1H-1,2,4-triazole]
[1]; Viola tricolor, post-emergence, fungicide 31.25 g/ha alone, read-out: VIOTR Ob
  pest or weed control at 31.25 g/ha: 0%
[2]; Veronica persica, post-emergence, fungicide 31.25 g/ha alone, read-out: VERPE Ob
  pest or weed control at 31.25 g/ha: 0%
[3]; Salsola tragus, post-emergence, fungicide 31.25 g/ha alone, read-out: SASKR Ob
  pest or weed control at 31.25 g/ha: 0%
[4]; Bassia scoparia, post-emergence, fungicide 31.25 g/ha alone, read-out: KCHSC Ob
  pest or weed control at 31.25 g/ha: 0%
[5]; Matricaria, post-emergence, fungicide 31.25 g/ha alone, read-out: MATCH Ob
  pest or weed control at 31.25 g/ha: 0%

## COC(=O)Nc1nc2ccccc2[nH]1 [Carbendazim, methyl 1H-benzimidazol-2-ylcarbamate]
[1]; Viola tricolor, post-emergence, fungicide 62.5 g/ha alone, read-out: VIOTR Ob
  pest or weed control at 62.5 g/ha: 0%
[4]; Bassia scoparia, post-emergence, fungicide 62.5 g/ha alone, read-out: KCHSC Ob
  pest or weed control at 62.5 g/ha: 0%

## N#Cc1c(Cl)c(Cl)c(Cl)c(C#N)c1Cl [Chlorothalonil, 2,4,5,6-tetrachloro-1,3-benzenedicarbonitrile]
[1]; Viola tricolor, post-emergence, fungicide 250 g/ha alone, read-out: VIOTR Ob
  pest or weed control at 250 g/ha: 0%
[2]; Veronica persica, post-emergence, fungicide 250 g/ha alone, read-out: VERPE Ob
  pest or weed control at 250 g/ha: 0%
[3]; Salsola tragus, post-emergence, fungicide 250 g/ha alone, read-out: SASKR Ob
  pest or weed control at 250 g/ha: 0%
[4]; Bassia scoparia, post-emergence, fungicide 250 g/ha alone, read-out: KCHSC Ob
  pest or weed control at 250 g/ha: 0%
[5]; Matricaria, post-emergence, fungicide 250 g/ha alone, read-out: MATCH Ob
  pest or weed control at 250 g/ha: 0%

## COc1c(Cl)ccc(-c2cc(N)c(Cl)c(C(=O)O)n2)c1F [Compound I TEA Salt, 4-amino-3-chloro-6-(4-chloro-2-fluoro-3-methoxyphenyl)pyridine-2-carboxylic acid]
[1]; Compound I 8.75 g/ha alone
  VIOTR Ob: 23%
[1]; Compound I 17.5 g/ha alone
  VIOTR Ob: 40%
[1]; Compound I 35 g/ha alone
  VIOTR Ob: 47%
[1]; Viola tricolor, post-emergence, alone, 17.5 g/ha, read-out: VIOTR Ob (observed control)
  pest or weed control at 17.5 g/ha: 40%
[1]; Viola tricolor, post-emergence, alone, 35 g/ha, read-out: VIOTR Ob (observed control)
  pest or weed control at 35 g/ha: 47%
[1]; alone, 8.75 g/ha
  VIOTR Ob (observed control): 23%
[2]; Compound I 8.75 g/ha alone
  VERPE Ob: 10%
[2]; Compound I 17.5 g/ha alone
  VERPE Ob: 40%
[2]; Compound I 35 g/ha alone
  VERPE Ob: 70%
[2]; 8.75 g/ha
  VERPE Ob (observed control): 10%
[2]; 17.5 g/ha
  VERPE Ob (observed control): 40%
[2]; 35 g/ha
  VERPE Ob (observed control): 70%
[3]; Salsola tragus, post-emergence, Compound I 8.75 g/ha alone, read-out: SASKR Ob
  pest or weed control at 8.75 g/ha: 80%
[3]; Salsola tragus, post-emergence, Compound I 17.5 g/ha alone, read-out: SASKR Ob
  pest or weed control at 17.5 g/ha: 84%
[3]; Salsola tragus, post-emergence, Compound I 35 g/ha alone, read-out: SASKR Ob
  pest or weed control at 35 g/ha: 86%
[3]; 8.75 g/ha
  SASKR Ob (observed control): 80%
[3]; 17.5 g/ha
  SASKR Ob (observed control): 84%
[3]; 35 g/ha
  SASKR Ob (observed control): 86%
[4]; Compound I 8.75 g/ha alone
  KCHSC Ob: 40%
[4]; Compound I 17.5 g/ha alone
  KCHSC Ob: 55%
[4]; Compound I 35 g/ha alone
  KCHSC Ob: 65%
[4]; 8.75 g/ha
  KCHSC Ob (observed control): 40%
[4]; 17.5 g/ha
  KCHSC Ob (observed control): 55%
[4]; 35 g/ha
  KCHSC Ob (observed control): 65%
[5]; Compound I 8.75 g/ha alone
  MATCH Ob: 40%
[5]; Matricaria, post-emergence, Compound I 17.5 g/ha alone, read-out: MATCH Ob
  pest or weed control at 17.5 g/ha: 67%
[5]; Matricaria, post-emergence, Compound I 35 g/ha alone, read-out: MATCH Ob
  pest or weed control at 35 g/ha: 73%
[5]; 8.75 g/ha
  MATCH Ob (observed control): 40%
[5]; 17.5 g/ha
  MATCH Ob (observed control): 67%
[5]; 35 g/ha
  MATCH Ob (observed control): 73%

## Cc1cc(C2CC2)nc(Nc2ccccc2)n1 [Cyprodinil, 4-cyclopropyl-6-methyl-N-phenyl-2-pyrimidinamine]
[3]; Salsola tragus, post-emergence, fungicide 187.5 g/ha alone, read-out: SASKR Ob
  pest or weed control at 187.5 g/ha: 0%

## OC(Cn1cncn1)(c1ccc(F)cc1)c1ccccc1F (stereo not drawn) [Flutriafol, α-(2-fluorophenyl)-α-(4-fluorophenyl)-1H-1,2,4-triazole-1-ethanol]
[1]; Viola tricolor, post-emergence, fungicide 21.25 g/ha alone, read-out: VIOTR Ob
  pest or weed control at 21.25 g/ha: 0%
[3]; Salsola tragus, post-emergence, fungicide 21.25 g/ha alone, read-out: SASKR Ob
  pest or weed control at 21.25 g/ha: 0%
[4]; Bassia scoparia, post-emergence, fungicide 21.25 g/ha alone, read-out: KCHSC Ob
  pest or weed control at 21.25 g/ha: 0%
[5]; Matricaria, post-emergence, fungicide 21.25 g/ha alone, read-out: MATCH Ob
  pest or weed control at 21.25 g/ha: 0%

## CO/N=C(/C(=O)OC)c1ccccc1COc1ccccc1C [Kresoxim-methyl, methyl (αE)-α-(methoxyimino)-2-[(2-methylphenoxy)methyl]benzeneacetate]
[5]; Matricaria, post-emergence, fungicide 25 g/ha alone, read-out: MATCH Ob
  pest or weed control at 25 g/ha: 0%

## CC1(C)CCC(Cc2ccc(Cl)cc2)C1(O)Cn1cncn1 (stereo not drawn) [Metconazole, 5-[(4-chlorophenyl)methyl]-2,2-dimethyl-1-(1H-1,2,4-triazol-1-ylmethyl)cyclopentanol]
[4]; Bassia scoparia, post-emergence, read-out: KCHSC Ob
  pest or weed control: 0%
[5]; Matricaria, post-emergence, read-out: MATCH Ob
  pest or weed control: 0%

## COc1cc(C)c(C(=O)c2c(OC)ccc(Br)c2C)c(OC)c1OC [Metrafenone, (3-bromo-6-methoxy-2-methylphenyl)(2,3,4-trimethoxy-6-methylphenyl)methanone]
[1]; Viola tricolor, post-emergence, fungicide 37.5 g/ha alone, read-out: VIOTR Ob
  pest or weed control at 37.5 g/ha: 0%
[3]; Salsola tragus, post-emergence, fungicide 37.5 g/ha alone, read-out: SASKR Ob
  pest or weed control at 37.5 g/ha: 0%
[5]; Matricaria, post-emergence, fungicide 37.5 g/ha alone, read-out: MATCH Ob
  pest or weed control at 37.5 g/ha: 0%

## CCCOc1nc2ccc(I)cc2c(=O)n1CCC [Proquinazid, 6-iodo-2-propoxy-3-propyl-4(3H)-quinazolinone]
[1]; Viola tricolor, post-emergence, fungicide 12.5 g/ha alone, read-out: VIOTR Ob
  pest or weed control at 12.5 g/ha: 0%
[5]; Matricaria, post-emergence, fungicide 12.5 g/ha alone, read-out: MATCH Ob
  pest or weed control at 12.5 g/ha: 0%

## OC(Cc1ccccc1Cl)(Cn1[nH]cnc1=S)C1(Cl)CC1 (stereo not drawn) [Prothioconazole, 2-[2-(1-chlorocyclopropyl)-3-(2-chlorophenyl)-2-hydroxypropyl]-1,2-dihydro-3H-1,2,4-triazole-3-thione]
[2]; Veronica persica, post-emergence, fungicide 50 g/ha alone, read-out: VERPE Ob
  pest or weed control at 50 g/ha: 0%
[3]; Salsola tragus, post-emergence, fungicide 50 g/ha alone, read-out: SASKR Ob
  pest or weed control at 50 g/ha: 0%
[4]; Bassia scoparia, post-emergence, fungicide 50 g/ha alone, read-out: KCHSC Ob
  pest or weed control at 50 g/ha: 0%
[5]; Matricaria, post-emergence, fungicide 50 g/ha alone, read-out: MATCH Ob
  pest or weed control at 50 g/ha: 0%

## CCCN(CC)CC1COC2(CCC(C(C)(C)C)CC2)O1 (stereo not drawn) [Spiroxamine, 8-(1,1-dimethylethyl)-N-ethyl-N-propyl-1,4-dioxaspiro[4.5]decane-2-methanamine]
[1]; Viola tricolor, post-emergence, alone, 180 g/ha, read-out: VIOTR Ob (observed control)
  pest or weed control at 180 g/ha: 0%
[4]; 180 g/ha
  KCHSC Ob (observed control): 0%
[5]; 180 g/ha
  MATCH Ob (observed control): 0%

## COc1ccnc(C(=O)N[C@H]2COC(=O)[C@H](Cc3ccccc3)[C@@H](OC(=O)C(C)C)[C@H](C)OC2=O)c1OCOC(=O)C(C)C [compound II, isobutyric acid (3S,6S,7R,8R)-8-benzyl-3-[(3-isobutyryloxymethoxy-4-methoxypyridine-2-carbonyl)-amino]-6-methyl-4,9-dioxo-[1,5]dioxonan-7-yl ester]
[1]; Viola tricolor, post-emergence, read-out: VIOTR Ob (observed control)
  pest or weed control at 40.5 g/ha: 0%
[3]; 40.5 g/ha
  SASKR Ob (observed control): 0%
[4]; 40.5 g/ha
  KCHSC Ob (observed control): 0%
[5]; 40.5 g/ha
  MATCH Ob (observed control): 0%
